Where a SMILES comes first, the peptide text is derived from it.
Key:
Assay type in all cases: cell-based
[1] = tested on: Enterobacter cloacae BE 97; assay: Inhibition zone assay; design: key: --: "-" means that no inhibition has been found; conditions: I and B 10 ul
[2] = tested on: Haemophilus influenzae NCTC 7279; assay: Inhibition zone assay; design: key: --: "-" means that no inhibition has been found; conditions: I and B 10 ul
[3] = tested on: Klebsiella aerogenes 1961 E; assay: Inhibition zone assay; design: key: --: "-" means that no inhibition has been found; conditions: I and B 10 ul, L 5 ug
[4] = tested on: Neisseria mucosa ATCC 25999; assay: Inhibition zone assay; design: key: --: "-" means that no inhibition has been found; conditions: I 10 ul
[5] = tested on: Pseudomonas aeruginosa ATCC 7700; assay: Inhibition zone assay; design: key: --: "-" means that no inhibition has been found
[6] = tested on: Salmonella typhimurium ATCC 23565; assay: Inhibition zone assay; design: key: --: "-" means that no inhibition has been found
[7] = tested on: Salmonella typhimurium NCTC 74; assay: Inhibition zone assay; design: key: --: "-" means that no inhibition has been found; conditions: I and B 10 ul
[8] = tested on: Salmonella Wien 83/16; assay: Inhibition zone assay; design: key: --: "-" means that no inhibition has been found; conditions: I and B 10 ul
[9] = tested on: Salmonella enteritidis 83/34; assay: Inhibition zone assay; design: key: --: "-" means that no inhibition has been found; conditions: I and B 10 ul
[10] = tested on: Salmonella Newport CD 94; assay: Inhibition zone assay; design: key: --: "-" means that no inhibition has been found; conditions: I 10 ul
[11] = tested on: ATCC 17991; assay: Inhibition zone assay; design: key: --: "-" means that no inhibition has been found; conditions: Salmonella marcescens ATCC 17991
[12] = tested on: Clostridium difficile Bart 1924; assay: Inhibition zone assay; design: key: --: "-" means that no inhibition has been found; conditions: I 10 ul
Experimental: (§1) Whole lymph or purified components, resuspended in PBS to a final volume equal to the starting material (heated lymph), was applied in 3 mm wells on agar plates seeded with the test organisms. Antibacterial activity was determined by measuring the growth-inhibition zones (in mm).

[13] = tested on: Corynebacterium michiganense pv. michiganense NCPPB 1573; assay: Inhibition zone assay; design: key: --: "-" means that no inhibition has been found
Experimental: as §1

[14] = tested on: Shigella flexneri CP 87; assay: Inhibition zone assay; design: key: --: "-" means that no inhibition has been found; conditions: I 10 ul
Experimental: as §1

[15] = tested on: Shigella flexneri NCTC 9950; assay: Inhibition zone assay; design: key: --: "-" means that no inhibition has been found; conditions: I and B 10 ul
Experimental: as §1

[16] = tested on: Shigella sonnei CQ26; assay: Inhibition zone assay; design: key: --: "-" means that no inhibition has been found; conditions: I and B 10 ul
Experimental: as §1

[17] = tested on: Agrobacterium tumefaciens DSM 3129; assay: Inhibition zone assay; conditions: I and B 10 ul, L 5 ug
[18] = tested on: Agrobacterium rhizogenes ATCC 11325; assay: Inhibition zone assay; design: key: --: "-" means that no inhibition has been found; conditions: I and B 10 ul, L 5 ug
[19] = tested on: Azospirillum brasilliense ATCC 29145; assay: Inhibition zone assay; design: key: --: "-" means that no inhibition has been found
[20] = tested on: Corynebacterium insidiosum NCPPB 1109; assay: Inhibition zone assay; conditions: I and B 10 ul, L 5 ug
Experimental: as §1

[21] = tested on: Erwinia amylovora NCPPB 638; assay: Inhibition zone assay
[22] = tested on: Erwinia carotovora var. atroseptica NCPPB 549; assay: Inhibition zone assay; design: key: --: "-" means that no inhibition has been found; conditions: I and B 10 ul, L 5 ug
[23] = tested on: Pseudomonas solanacearum ATCC 11696; design: key: --: "-" means that no inhibition has been found; conditions: * synthetic ApidIa and heattreated immune lymph instead of Bee6 and native immune lymph
[24] = tested on: Pseudomonas syringae pv. maculicola NCPPB 1776; assay: Inhibition zone assay; design: key: --: "-" means that no inhibition has been found; conditions: * synthetic ApidIa and heattreated immune lymph instead of Bee6 and native immune lymph
[25] = tested on: Pseudomonas syringae pv. syringae ATCC 19310; assay: Inhibition zone assay; design: key: --: "-" means that no inhibition has been found
[26] = tested on: Pseudomonas syringae pv. tabaci NCPPB 1237; assay: Inhibition zone assay; design: key: --: "-" means that no inhibition has been found; conditions: * synthetic ApidIa and heattreated immune lymph instead of Bee6 and native immune lymph
[27] = tested on: Pseudomonas syringae pv. tomato NCPPB 1106; assay: Inhibition zone assay; design: key: --: "-" means that no inhibition has been found; conditions: * synthetic ApidIa and heattreated immune lymph instead of Bee6 and native immune lymph
[28] = tested on: Xanthomonas campestris pv. oryzae IRN 235; design: key: --: "-" means that no inhibition has been found
[29] = tested on: Acinetobacter calcoaceticus MON 108; assay: Inhibition zone assay; design: key: --: "-" means that no inhibition has been found
[30] = tested on: Arthrobacter sp. NRRL B-3724; assay: Inhibition zone assay
[31] = tested on: Bacillus thuringiensis DSM 3131; assay: Inhibition zone assay; design: key: --: "-" means that no inhibition has been found; conditions: I and B 10 ul, L 5 ug
[32] = tested on: Flavobacterium devorans NRRL B-54; assay: Inhibition zone assay; design: key: --: "-" means that no inhibition has been found; conditions: I and B 10 ul, L 5 ug
[33] = tested on: Pseudomonas acidovorans CuETM 83-109; assay: Inhibition zone assay; design: key: --: "-" means that no inhibition has been found; conditions: I and B 10 ul, L 5 ug
[34] = tested on: Serratia liquefaciens DSM 30125; assay: Inhibition zone assay; design: key: --: "-" means that no inhibition has been found; conditions: I 10 ul, L 5 ug
[35] = tested on: Serratia marcescens ATCC 17991; assay: Inhibition zone assay; design: key: --: "-" means that no inhibition has been found
[36] = tested on: Clostridia
[37] = tested on: Streptococci; assay: Growth-inhibition zone assay

SMILES: CC[C@H](C)[C@H](NC(=O)[C@H](CCCCN)NC(=O)[C@@H]1CCCN1C(=O)[C@H](CC(N)=O)NC(=O)[C@H](Cc1ccccc1)NC(=O)[C@@H]1CCCN1C(=O)CNC(=O)[C@H](CCC(N)=O)NC(=O)CNC(=O)[C@@H]1CCCN1C(=O)[C@H](Cc1ccccc1)NC(=O)[C@@H](NC(=O)[C@@H]1CCCN1C(=O)[C@H](Cc1ccccc1)NC(=O)[C@@H]1CCCN1C(=O)[C@H](CCCNC(=N)N)NC(=O)[C@H](CCCNC(=N)N)NC(=O)CNC(=O)[C@@H]1CCCN1C(=O)[C@H](CCC(N)=O)NC(=O)[C@@H]1CCCN1C(=O)[C@@H](NC(=O)[C@H](CC(N)=O)NC(=O)[C@@H]1CCCN1C(=O)[C@H](CC(C)C)NC(=O)[C@@H]1CCCN1C(=O)[C@@H](NC(=O)[C@@H](N)Cc1ccc(O)cc1)C(C)C)C(C)C)[C@@H](C)O)C(=O)N[C@@H](CCCCN)C(=O)N[C@@H](Cc1c[nH]c2ccccc12)C(=O)N1CCC[C@H]1C(=O)N[C@@H](CCC(N)=O)C(=O)NCC(=O)N[C@@H](Cc1ccc(O)cc1)C(=O)O [bee 9] (H-YVPLPNVPQPGRRPFPTFPGQGPFNPKIKWPQGY-OH)
- diameter of growth-inhibition zone [1]: --
- diameter of growth-inhibition zone [2]: --
- diameter of growth-inhibition zone [3]: --
- diameter of growth-inhibition zone [4]: --
- diameter of growth-inhibition zone [5]: --
- diameter of growth-inhibition zone [6]: --
- diameter of growth-inhibition zone [7]: --
- diameter of growth-inhibition zone [8]: --
- diameter of growth-inhibition zone [9]: --
- diameter of growth-inhibition zone [10]: --
- diameter of growth-inhibition zone [11]: --
- diameter of growth-inhibition zone [12]: --
- diameter of growth-inhibition zone [13]: --
- diameter of growth-inhibition zone [14]: --
- diameter of growth-inhibition zone [15]: --
- diameter of growth-inhibition zone [16]: --
- diameter of growth-inhibition zone [17]: 4 mm
- diameter of growth-inhibition zone [18]: --
- diameter of growth-inhibition zone [19]: --
- diameter of growth-inhibition zone [20]: 7 mm
- diameter of growth-inhibition zone [21]: 5 mm
- diameter of growth-inhibition zone [22]: --
- diameter of growth-inhibition zone [23]: --
- diameter of growth-inhibition zone [24]: --
- diameter of growth-inhibition zone [25]: --
- diameter of growth-inhibition zone [26]: --
- diameter of growth-inhibition zone [27]: --
- diameter of growth-inhibition zone [28]: --
- diameter of growth-inhibition zone [29]: --
- diameter of growth-inhibition zone [30]: 8 mm
- diameter of growth-inhibition zone [31]: --
- diameter of growth-inhibition zone [32]: --
- diameter of growth-inhibition zone [33]: --
- diameter of growth-inhibition zone [34]: --
- diameter of growth-inhibition zone [35]: --
- susceptibility, in words [36]: resistant
- susceptibility, in words [37]: resistant
